According to article PMC12519282, “Reduction of Negative Charge in Mercaptoacetyl-Based Chelators Influences the Biodistribution of Prostate-Specific Membrane Antigen-Targeting Pseudopeptides Labeled with Technetium-99m” (ACS Pharmacology & Translational Science, 2025):
Read-outs that look alike come from different tables or passages of the source. Marks after values point to notes of the source that are not given here.

Tests used:
PC3-pip xenografts = test: biodistribution and tumor targeting in PC3-pip tumor-bearing mice; type: in vivo
From the text: The injected masses for the in vivo experiments were chosen based on the findings for [^99mTc]-Tc-BQ0413: to study the general biodistribution of radiolabeled tracers in normal mice (NMRI), 40 pmol of tracer was used to avoid blocking of PSMA-mediated uptake in kidneys and salivary glands, to study tumor targeting, 5 nmol of tracer was used to decrease uptake in PSMA-expressing organs.
PSMA-expressing PCa xenografts were implanted in BALB/c nu/nu mice by subcutaneous injection of the PC3-pip cell suspension in PBS (10^7 cells/animal in 100 μL). The average animal weight in the experiment was 18 ± 2 g. The average tumor weight was 0.4 ± 0.2 g. For in vivo specificity control, 10^7 cells/animal PSMA-negative PC-3 cells were implanted. The average animal weight was 18 ± 1 g. The average tumor weight was 0.1 ± 0.1 g. Four mice per data point were used in the in vivo experiments.
For tumor-bearing mice, each mouse was intravenously injected with 5 nmol of [^99mTc]-Tc-BQ0413, [^99mTc]-Tc-BQ0500, and [^99mTc]-Tc-BQ0501 (60 kBq; the mass of the injected compound was adjusted with an unlabeled tracer). The mice were euthanized after lethal intraperitoneal injection of ketamine/xylazine, followed by exsanguination 1 and 3 h pi, similarly to the procedure described above.

physchem = type: physicochemical; conditions: pH 7.4
Description: (§1) To evaluate the label’s stability, 10 μL (0.25 μg) of radiolabeled conjugates was incubated with 300× molar excess of cysteine or with PBS for 1 h at room temperature. The test was run in triplicate. The release of free technetium-99m was controlled by using iTLC and radio-HPLC analysis. The stability in serum was analyzed by mixing the radioconjugates (0.25 μg in 10 μL) with murine serum or PBS (40 μL) as a control. The samples were incubated for 1 h at 37 °C and analyzed by iTLC. The experiment was performed in triplicate. The octanol–water distribution coefficient (Log D) was determined experimentally by the addition of 100 pmol of the radiolabeled tracer to an Eppendorf tube containing PBS (500 μL) and n-octanol (500 μL), pH ∼ 7.4. The solution was vortexed and centrifuged, and aliquots (50 μL) from each phase were collected and measured using a gamma counter. The experiment was performed in triplicate.

PSMA = target: T1, PSMA (Homo sapiens, UniProt Q04609); test: binding kinetics in real time on living PC3-pip cells (LigandTracer Yellow)
T1 construct: expressed in transfected cells; host or cells: PC3-pip (PSMA-transfected PC-3 prostate carcinoma cells), from Prof; Martin G. Pomper, Johns Hopkins University
Description: The binding kinetics of technetium-99m-labeled BQ0413, BQ0500, and BQ0501 were determined in PC3-pip cells in real-time using LigandTracer Yellow (Ridgeview Instruments AB, Uppsala, Sweden). The activity binding was recorded with 5 nM radiolabeled tracers for 150 min. After the binding kinetics were measured, the medium containing the labeled tracer was replaced with fresh medium, and the dissociation was monitored over 7 h. The association rate (k a) and the dissociation rate (k d) were computed using a 1:2 kinetic binding model in TraceDrawer software (Ridgeview Instruments AB, Uppsala, Sweden), and the equilibrium dissociation constant K D was calculated.

[1] = type: in vitro ADME, murine; conditions: 1 h
Description: as §1

PC3-pip cells [2] = test: cellular processing (membrane-bound / internalized activity); type: cell-based; conditions: 2 nM, continuous incubation, after 8 h
Description: To evaluate cellular processing of technetium-99m-labeled BQ0500 and BQ0501, PC3-pip cells were incubated with the radiolabeled tracer (2 nM), and at 1, 2, 4, and 8 h of continuous incubation, the membrane-bound and internalized fractions were collected as previously described using 4 M urea solution in 0.2 M glycine buffer (pH 2) to collect membrane-bound fraction and 1 N solution of NaOH to collect the internalized fraction. The activity in the samples was measured, and the percentage of membrane-bound and internalized activity was calculated. The experiments were performed in triplicate.

PC3-pip cells [3] = test: in vitro binding specificity test; type: cell-based; conditions: 1 h, 37 °C
Description: For the in vitro binding specificity test, approximately 8 × 10^5 PC3-pip cells per well were seeded 24 h before the experiment. […] Technetium-99m-labeled tracers were added to each well to reach a concentration of 2 nM. After 1 h of incubation at 37 °C, cells were washed with PBS solution, detached, and collected. Cell-associated activity was measured using a gamma counter and presented as the percentage of added activity.

[4] = PC3-pip tumor-bearing mice, 5 nmol/mouse iv, 1 h pi
[5] = PC3-pip tumor-bearing mice, 5 nmol/mouse iv, 3 h pi
[6] = PC3-pip tumor-bearing mice, 5 nmol/mouse iv, 3 h pi, listed as [99mTc]Tc-BQ0500

T1 sequence (Q04609 whole entry): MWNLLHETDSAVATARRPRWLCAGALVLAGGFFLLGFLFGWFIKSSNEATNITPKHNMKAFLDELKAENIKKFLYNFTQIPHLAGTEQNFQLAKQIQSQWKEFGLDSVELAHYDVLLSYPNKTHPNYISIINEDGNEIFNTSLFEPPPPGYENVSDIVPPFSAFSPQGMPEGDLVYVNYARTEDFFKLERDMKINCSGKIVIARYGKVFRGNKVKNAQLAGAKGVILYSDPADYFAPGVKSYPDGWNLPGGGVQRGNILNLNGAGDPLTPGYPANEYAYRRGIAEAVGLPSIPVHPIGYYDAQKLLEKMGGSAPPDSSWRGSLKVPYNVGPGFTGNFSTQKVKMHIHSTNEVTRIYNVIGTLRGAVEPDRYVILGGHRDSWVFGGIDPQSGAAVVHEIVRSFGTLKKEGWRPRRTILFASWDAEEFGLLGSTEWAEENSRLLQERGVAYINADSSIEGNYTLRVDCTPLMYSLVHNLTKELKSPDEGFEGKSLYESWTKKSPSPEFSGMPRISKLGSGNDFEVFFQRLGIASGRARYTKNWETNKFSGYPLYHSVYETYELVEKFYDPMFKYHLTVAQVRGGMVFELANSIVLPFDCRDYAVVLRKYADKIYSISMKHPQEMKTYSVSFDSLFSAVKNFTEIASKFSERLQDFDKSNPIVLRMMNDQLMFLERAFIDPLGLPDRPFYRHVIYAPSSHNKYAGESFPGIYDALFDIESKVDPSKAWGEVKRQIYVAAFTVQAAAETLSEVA

CC(=O)NC(CCCCNC(=O)CNC(=O)C(CCC(=O)O)NC(=O)C(CO)NC(=O)C(CCC(=O)O)NC(=O)CS)C(=O)NCCCCCCCC(=O)NC(Cc1ccc(O)cc1)C(=O)NC(Cc1ccc2ccccc2c1)C(=O)NCCCCC(NC(=O)NC(CCC(=O)O)C(=O)O)C(=O)O (stereo not shown) [[^99mTc]Tc-BQ0500, metal not drawn]
activity uptake in intestines with content, higher compared to [99mTc]Tc-BQ0413 (PC3-pip xenografts; PC3-pip tumor-bearing mice, 5 nmol): 5.3 fold | activity in carcass (PC3-pip xenografts; [4]): 7 ± 1 ^b %IA/sample | activity in intestines with content (PC3-pip xenografts; [4]): 3.9 ± 0.4 ^b, ^c, ^d %IA/sample | activity uptake in blood (PC3-pip xenografts; [4]): 1.1 ± 0.2 ^b %IA/g | activity uptake in bone (PC3-pip xenografts; [4]): 0.5 ± 0.1 ^b, ^d %IA/g | activity uptake in kidney (PC3-pip xenografts; [4]): 51 ± 3 ^b ^c %IA/g | activity uptake in liver (PC3-pip xenografts; [4]): 0.9 ± 0.2 ^b %IA/g | activity uptake in lung (PC3-pip xenografts; [4]): 1.3 ± 0.2 ^b %IA/g | activity uptake in muscle (PC3-pip xenografts; [4]): 0.3 ± 0.1 ^b %IA/g | activity uptake in pancreas (PC3-pip xenografts; [4]): 0.4 ± 0.1 ^b %IA/g | activity uptake in salivary gland (PC3-pip xenografts; [4]): 0.7 ± 0.1 ^b ^, ^d %IA/g | activity uptake in small intestines (PC3-pip xenografts; [4]): 0.6 ± 0.2 ^c %IA/g | activity uptake in spleen (PC3-pip xenografts; [4]): 2.5 ± 0.2 ^b %IA/g | activity uptake in stomach (PC3-pip xenografts; [4]): 0.47 ± 0.02 ^d %IA/g | activity uptake in tumor (PC3-pip xenografts; [4]): 29 ± 3 %IA/g | tumor-to-blood ratio (PC3-pip xenografts; [4]): 28 ± 6 ^b | tumor-to-bone ratio (PC3-pip xenografts; [4]): 65 ± 15 ^b ^, ^d | tumor-to-kidney ratio (PC3-pip xenografts; [4]): 0.6 ± 0.1 ^b ^, ^c | tumor-to-liver ratio (PC3-pip xenografts; [4]): 32 ± 7 ^b | tumor-to-lung ratio (PC3-pip xenografts; [4]): 23 ± 4 ^b | tumor-to-muscle ratio (PC3-pip xenografts; [4]): 101 ± 28 ^b | tumor-to-pancreas ratio (PC3-pip xenografts; [4]): 69 ± 13 | tumor-to-salivary gland ratio (PC3-pip xenografts; [4]): 42 ± 8 ^b ^, ^d | tumor-to-small intestines ratio (PC3-pip xenografts; [4]): 51 ± 20 | tumor-to-spleen ratio (PC3-pip xenografts; [4]): 12 ± 2 ^b | tumor-to-stomach ratio (PC3-pip xenografts; [4]): 61 ± 7 ^d | activity in carcass (PC3-pip xenografts; [5]): 4 ± 1 ^d %IA/sample | activity in intestines with content (PC3-pip xenografts; [5]): 5.4 ± 0.3 ^c, ^d %IA/sample | activity uptake in blood (PC3-pip xenografts; [5]): 0.3 ± 0.1 ^c ^, ^d %IA/g | activity uptake in bone (PC3-pip xenografts; [5]): 0.10 ± 0.02 %IA/g | activity uptake in kidney (PC3-pip xenografts; [5]): 33 ± 3 ^c, ^d %IA/g | activity uptake in liver (PC3-pip xenografts; [5]): 0.4 ± 0.1 ^c %IA/g | activity uptake in lung (PC3-pip xenografts; [5]): 0.4 ± 0.1 ^c %IA/g | activity uptake in muscle (PC3-pip xenografts; [5]): 0.10 ± 0.03 %IA/g | activity uptake in pancreas (PC3-pip xenografts; [5]): 0.3 ± 0.2 %IA/g | activity uptake in salivary gland (PC3-pip xenografts; [5]): 0.2 ± 0.1 ^d %IA/g | activity uptake in small intestines (PC3-pip xenografts; [5]): 0.4 ± 0.2 %IA/g | activity uptake in spleen (PC3-pip xenografts; [5]): 1.4 ± 0.3 ^c %IA/g | activity uptake in stomach (PC3-pip xenografts; [5]): 1.6 ± 1.2 ^c %IA/g | tumor-to-bone ratio (PC3-pip xenografts; [5]): 341 ± 100 ^d | tumor-to-kidney ratio (PC3-pip xenografts; [5]): 1.0 ± 0.2 ^c | tumor-to-liver ratio (PC3-pip xenografts; [5]): 79 ± 22 ^c | tumor-to-lung ratio (PC3-pip xenografts; [5]): 71 ± 15 ^c | tumor-to-muscle ratio (PC3-pip xenografts; [5]): 332 ± 99 | tumor-to-pancreas ratio (PC3-pip xenografts; [5]): 140 ± 82 ^c | tumor-to-salivary gland ratio (PC3-pip xenografts; [5]): 141 ± 42 | tumor-to-small intestines ratio (PC3-pip xenografts; [5]): 94 ± 38 ^c | tumor-to-spleen ratio (PC3-pip xenografts; [5]): 22 ± 5 ^c | tumor-to-stomach ratio (PC3-pip xenografts; [5]): 38 ± 39 ^c | activity in carcass (PC3-pip xenografts; [6]): 4±1 %IA/sample | activity in intestines with content (PC3-pip xenografts; [6]): 5.4±0.3 %IA/sample | activity uptake in blood (PC3-pip xenografts; [6]): 0.3±0.1 %IA/g | activity uptake in bone (PC3-pip xenografts; [6]): 0.10±0.02 %IA/g | activity uptake in kidney (PC3-pip xenografts; [6]): 33±3 %IA/g | activity uptake in liver (PC3-pip xenografts; [6]): 0.4±0.1 %IA/g | activity uptake in lung (PC3-pip xenografts; [6]): 0.4±0.1 %IA/g | activity uptake in muscle (PC3-pip xenografts; [6]): 0.10±0.03 %IA/g | activity uptake in pancreas (PC3-pip xenografts; [6]): 0.3±0.2 %IA/g | activity uptake in salivary gland (PC3-pip xenografts; [6]): 0.2±0.1 %IA/g | activity uptake in small intestines (PC3-pip xenografts; [6]): 0.4±0.2 %IA/g | activity uptake in spleen (PC3-pip xenografts; [6]): 1.4±0.3 %IA/g | activity uptake in stomach (PC3-pip xenografts; [6]): 1.6±1.2 %IA/g | activity uptake in tumor (PC3-pip xenografts; [6]): 31±4 %IA/g | excretion pathway (PC3-pip xenografts; PC3-pip xenografts): predominantly renal | Log D (octanol–water distribution coefficient) (physchem): −2.5 ± 0.1 | B max1 (binding maximum) (PSMA; 5 nM tracer, 1:2 model (1:1 for BQ0413)): 881 CPS | B max2 (binding maximum) (PSMA; 5 nM tracer, 1:2 model, second interaction): 40 CPS | Kd (PSMA; 5 nM tracer, 1:2 model, second interaction, read-out: K D2): 52 pM | affinity compromised in comparison with [99mTc]Tc-BQ0413 (PSMA; PC3-pip cells): 3–5 fold | Kd (PSMA; as rounded in comparison table, read-out: K D1): 300 pM | Kd (PSMA; as rounded in comparison table, read-out: K D2): 50 pM | intact tracer in PBS ([1]; PBS control, 37 °C, n = 3): 99.0 ± 0.5% | intact tracer in murine serum ([1]; mouse, 5 µg/mL): 99.7 ± 0.3% | maximum of internalized activity (PC3-pip cells [2]): 42–43 % of cell-associated activity | activity uptake by PC3-pip cells (PC3-pip cells [3]; 2 nM tracer): 71 ± 4 % of added activity | activity uptake by PC3-pip cells after presaturation with PSMA-11 (PC3-pip cells [3]; 250-fold excess of nonlabeled PSMA-11, 2 nM tracer): significantly (p < 0.0001) decreased
